From US8486979B2, “1,2,4 oxadiazole compounds and methods of use thereof” (AbbVie Inc., priority 2006, dated 2013)
Where a name gives a salt, the structure may show the parent alone.

Biological target: T1, human α4β2 nicotinic acetylcholine receptor (Homo sapiens, UniProt P17787+P43681)
T1 construct: expressed in transfected cells
Experiment: Calcium flux (FLIPR) assay, HEK-293 cells expressing human α4β2 nAChR
Format: cell-based
Conditions: for Activity (allosteric effects—potentiation of fluorescence responses): α4β2 positive allosteric modulation, calcium fluorescence (FLIPR); for potency (EC50 values) for activation of α4β2 nAChRs in the presence vs absence of PAM: presence and absence of α4β2 PAM Compound 1, FIG. 5
Experimental: Experimental Procedure: Human embryonic kidney (HEK) 293 cells stably expressing human α4β2 or α3β4 combinations are grown to confluency in 162 cm^2 tissue culture flasks in DMEM media supplemented with 10% FBS and 25 μg/ml zeocin and 200 μg/ml hygromycin B. IMR-32 neuroblastoma cells (ATCC) are grown to confluency in 162 cm^2 tissue culture flasks in minimum essential media supplemented with 10% FBS and 1 mM sodium pyruvate, 1% non-essential amino acids and 1% antibiotic-antimycotic. The cells are then dissociated using cell dissociation buffer and 100-150 μl per well of 3.5×10^5 cells/ml cell suspension (˜50,000-100,000 cells/well) was plated into 96-well black plates (poly-D-lysine precoated) with clear bottom and maintained for 24-48 hours in a tissue culture incubator at 37° C. under an atmosphere of 5% CO2: 95% air. Other clonal cell lines or primary cell cultures that express endogenous α4* nicotinic receptors may also be used in this assay. Calcium flux was measured using calcium-3 assay kit (Molecular Devices, Sunnyvale, Calif.) or fluo-4 (Invitrogen). A stock solution of the dye was prepared by dissolving each vial supplied by the vendor in Hank's balanced salt solution buffer (HBSS) or 150 mM NMDG, 20 mM CaCl2 containing 10 mM HEPES, The stock solution was diluted 1:20 using the same buffer before use. The growth media was removed from the cells. The cells were loaded with 100 μl of the dye per well and incubated at room temperature for up to one hour for HEK 293 clonal stable cell lines or 30 minutes-45 minutes at 37° C. for IMR-32 cells Fluorescence measurements were read simultaneously from all the wells by a Fluorometic Imaging Plate Reader (FLIPR) at an excitation wavelength of 480 nm and an emission wavelength of 520 nm. Baseline fluorescence was measured for the first 6 seconds at which 3× concentrations of modulator/test compounds were added to the cell plate at 50 μl and incubated for five minutes. The fluorescence intensity was captured every second for the first 1 minute followed by every 5 seconds for an additional 4 minutes. This procedure was followed by 50 μl of 4× concentration of agonist and readings were taken for a period of 3-5 minutes as described above. Data was normalized to maximal responses and plotted as a function of concentration. The concentration dependence of changes fluorescence responses was fitted by nonlinear regression analysis (GraphPad Prism, San Diego, Calif.) to obtain EC50 values.
The positive allosteric modulator effects on α4β2 nAChRs exemplified by 3-(3-pyridin-3-yl-1,2,4-oxadiazol-5-yl)benzonitrile (Compound 1) and 3,5-di(pyridin-3-yl)-1,2,4-oxadiazole (Compound 2) can be identified by measuring their potentiating effect to fluorescence changes in intracellular calcium using a fluorimetric plate reader. The potentiating effect of an α4β2 modulator on α4β2 receptor can also be illustrated by concentration responses to α4β2 agonists, for example 5-[(2R)-azetidin-2-ylmethoxy]-2-chloropyridine (Compound A) and (3R)-1-pyridin-3-ylpyrrolidin-3-amine (Compound B), in presence of a fixed concentration of PAM. […] In addition to compound A and B, other known nicotinic agonists can be left-shifted in presence of α4β2 PAM such as […]. […] This could lead to preferential effects of the agonist at the desired subtype, viz., α4β2, without effects at other nicotinic receptor subtypes and thus enhancing in vivo selectivity of the agonist.
The activity (allosteric effects—potentiation of fluorescence responses) ranges are defined as follows; “a” denotes as activity range from 200-400%, “b” denotes an activity range from 150-200%, “c” denotes an activity range from 120-150% and “d” denotes an activity range 90-120%. […]

T1 sequence (P43681 29-627 limits assumed): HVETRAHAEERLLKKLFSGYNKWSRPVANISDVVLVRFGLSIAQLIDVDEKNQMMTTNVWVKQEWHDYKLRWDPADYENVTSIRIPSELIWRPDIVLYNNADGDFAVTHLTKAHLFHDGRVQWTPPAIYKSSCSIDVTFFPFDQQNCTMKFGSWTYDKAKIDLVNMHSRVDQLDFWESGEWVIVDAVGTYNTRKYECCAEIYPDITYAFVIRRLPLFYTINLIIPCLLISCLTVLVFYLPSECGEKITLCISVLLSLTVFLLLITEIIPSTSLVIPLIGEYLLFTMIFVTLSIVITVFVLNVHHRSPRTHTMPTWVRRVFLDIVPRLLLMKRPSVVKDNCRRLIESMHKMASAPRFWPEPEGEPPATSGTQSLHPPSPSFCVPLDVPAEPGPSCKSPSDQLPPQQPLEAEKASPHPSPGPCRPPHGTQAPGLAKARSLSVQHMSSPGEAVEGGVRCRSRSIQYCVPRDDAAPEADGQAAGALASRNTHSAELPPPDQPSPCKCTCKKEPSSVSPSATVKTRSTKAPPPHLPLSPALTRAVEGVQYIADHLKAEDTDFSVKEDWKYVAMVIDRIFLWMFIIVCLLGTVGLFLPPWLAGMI
T1 sequence (P17787 26-502): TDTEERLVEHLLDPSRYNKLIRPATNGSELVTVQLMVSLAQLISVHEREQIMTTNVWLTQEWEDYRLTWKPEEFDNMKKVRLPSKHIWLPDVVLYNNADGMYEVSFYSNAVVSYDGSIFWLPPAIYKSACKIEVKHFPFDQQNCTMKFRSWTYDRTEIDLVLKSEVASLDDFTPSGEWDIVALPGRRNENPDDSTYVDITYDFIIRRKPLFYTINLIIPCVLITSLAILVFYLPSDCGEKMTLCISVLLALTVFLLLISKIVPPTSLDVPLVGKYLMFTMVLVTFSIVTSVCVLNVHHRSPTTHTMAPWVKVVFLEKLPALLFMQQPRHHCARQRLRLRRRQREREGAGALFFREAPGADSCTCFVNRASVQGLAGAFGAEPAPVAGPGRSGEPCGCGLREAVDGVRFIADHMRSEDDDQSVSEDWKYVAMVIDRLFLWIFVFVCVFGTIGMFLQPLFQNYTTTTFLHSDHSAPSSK

Structure (SMILES) | Activity (allosteric effects—potentiation of fluorescence responses) | potency (EC50 values) for activation of α4β2 nAChRs in the presence vs absence of PAM
Brc1cncc(-c2nc(-c3cccnc3)no2)c1 [Example 5, 5-(5-bromopyridin-3-yl)-3-(pyridin-3-yl)-1,2,4-oxadiazole] | c (“c” denotes an activity range from 120-150%) | –
NS(=O)(=O)c1cccc(-c2nc(-c3cccnc3)no2)c1 [Example 35, 3-(3-(pyridin-3-yl)-1,2,4-oxadiazol-5-yl)benzenesulfonamide] | a (“a” denotes as activity range from 200-400%) | –
N#Cc1cccc(-c2noc(-c3cccnc3)n2)c1 [Example 3, 3-(5-(pyridin-3-yl)-1,2,4-oxadiazol-3-yl)benzonitrile] | a (“a” denotes as activity range from 200-400%) | –
c1cnc2cc3c(cc2n1)[C@@H]1CNC[C@H]3C1 [varenicline, reference compound] | – | increase in the presence of the positive allosteric modulator
O=c1[nH]c2cc(-c3nc(-c4cccnc4)no3)ccc2o1 [Example 125, 5-(3-(pyridin-3-yl)-1,2,4-oxadiazol-5-yl)benzo[d]oxazol-2(3H)-one] | a (“a” denotes as activity range from 200-400%) | –
N#Cc1cccc(-c2noc(-c3ccc(F)nc3)n2)c1 [Example 4, 3-(5-(6-fluoropyridin-3-yl)-1,2,4-oxadiazol-3-yl)benzonitrile] | b (“b” denotes an activity range from 150-200%) | –
Fc1ccc(-c2nc(-c3ccnnc3)no2)cc1F [Example 83, 5-(3,4-Difluorophenyl)-3-(pyridazin-4-yl)-1,2,4-oxadiazole hydrochloride] | a (“a” denotes as activity range from 200-400%) | –
Fc1ccc(-c2nc(-c3cncnc3)no2)cc1F [Example 101, 5-(3,4-difluorophenyl)-3-(pyrimidin-5-yl)-1,2,4-oxadiazole tosylate] | a (“a” denotes as activity range from 200-400%) | –
CN[C@@H](C)C/C=C/c1cncc(OC(C)C)c1 [ispronicline, reference compound] | – | increase in the presence of the positive allosteric modulator
O=c1ccc(-c2noc(-c3cccnc3)n2)c[nH]1 [Example 55, 5-(5-(pyridin-3-yl)-1,2,4-oxadiazol-3-yl)pyridin-2(1H)-one] | c (“c” denotes an activity range from 120-150%) | –
Fc1ccc(-c2nc(-c3cccnc3)no2)cc1F [Example 10, 5-(3,4-difluorophenyl)-3-(pyridin-3-yl)-1,2,4-oxadiazole] | a (“a” denotes as activity range from 200-400%) | –
N#Cc1cccc(-c2noc(-c3ccc(Cl)nc3)n2)c1 [Example 76, 3-(5-(6-chloropyridin-3-yl)-1,2,4-oxadiazol-3-yl)benzonitrile] | b (“b” denotes an activity range from 150-200%) | –
c1cncc(-c2noc(-c3cccnc3)n2)c1 [Example 2, 3,5-di(pyridin-3-yl)-1,2,4-oxadiazole] | a (“a” denotes as activity range from 200-400%) | –
O=c1[nH]c2cc(-c3noc(-c4cccnc4)n3)ccc2o1 [Example 132, 5-(5-(pyridin-3-yl)-1,2,4-oxadiazol-3-yl)benzo[d]oxazol-2(3H)-one] | a (“a” denotes as activity range from 200-400%) | –
Clc1cc(-c2noc(-c3cccnc3)n2)ccn1 [Example 42, 3-(2-chloropyridin-4-yl)-5-(pyridin-3-yl)-1,2,4-oxadiazole] | c (“c” denotes an activity range from 120-150%) | –
Cc1ccc(-c2noc(-c3cccc(C#N)c3)n2)cn1 [Example 7, 3-(3-(6-methylpyridin-3-yl)-1,2,4-oxadiazol-5-yl)benzonitrile] | b (“b” denotes an activity range from 150-200%) | –
Oc1cncc(-c2nc(-c3cccnc3)no2)c1 [Example 9, 5-(3-(pyridin-3-yl)-1,2,4-oxadiazol-5-yl)pyridin-3-ol] | d (“d” denotes an activity range 90-120%) | –
CC(=O)c1cccc(-c2nc(-c3cccnc3)no2)c1 [Example 68, 1-(3-(3-(pyridin-3-yl)-1,2,4-oxadiazol-5-yl)phenyl)ethanone] | b (“b” denotes an activity range from 150-200%) | –
CS(=O)(=O)c1cccc(-c2nc(-c3cccnc3)no2)c1 [Example 41, 5-(3-(methylsulfonyl)phenyl)-3-(pyridin-3-yl)-1,2,4-oxadiazole] | c (“c” denotes an activity range from 120-150%) | –
N#Cc1ccc(-c2nc(-c3cccnc3)no2)cc1 [Example 19, 4-(3-(pyridin-3-yl)-1,2,4-oxadiazol-5-yl)benzonitrile] | b (“b” denotes an activity range from 150-200%) | –
O=[N+]([O-])c1cccc(-c2nc(-c3cccnc3)no2)c1 [Example 40, 5-(3-nitrophenyl)-3-(pyridin-3-yl)-1,2,4-oxadiazole] | a (“a” denotes as activity range from 200-400%) | –
Fc1cccc(-c2nc(-c3cccnc3)no2)c1F [Example 11, 5-(2,3-difluorophenyl)-3-(pyridin-3-yl)-1,2,4-oxadiazole] | a (“a” denotes as activity range from 200-400%) | –
